Tests used:
MAO-A = MAO-A (Homo sapiens, UniProt P21397); experiment: binding to monoamine oxidase A
From the text: (§1) 2R,6R-hydroxynorketamine was investigated for binding to monoamine oxidases A and B, monoamine transporters, as well as a variety of 5HT receptors.

CYP2D6 = CYP2D6 (Homo sapiens, UniProt P10635); experiment: CYP inhibition assay, CYP2D6; type: in vitro ADME
From the text: (§2) Cytochrome P450s (CYPs) are a family of enzymes that play a primary role in the metabolism of a wide variety of drugs. 2R,6R-hydroxynorketamine was investigated for its potential to inhibit the action of 7 key CYP enzymes using an inhibition assay measuring reduction in the formation of metabolites compared to control.

UGT1A1 = target: T1, UGT1A1 (Homo sapiens, UniProt P22309); experiment: UGT inhibition assay, UGT1A1; type: in vitro ADME
T1 sequence (P22309 26-533): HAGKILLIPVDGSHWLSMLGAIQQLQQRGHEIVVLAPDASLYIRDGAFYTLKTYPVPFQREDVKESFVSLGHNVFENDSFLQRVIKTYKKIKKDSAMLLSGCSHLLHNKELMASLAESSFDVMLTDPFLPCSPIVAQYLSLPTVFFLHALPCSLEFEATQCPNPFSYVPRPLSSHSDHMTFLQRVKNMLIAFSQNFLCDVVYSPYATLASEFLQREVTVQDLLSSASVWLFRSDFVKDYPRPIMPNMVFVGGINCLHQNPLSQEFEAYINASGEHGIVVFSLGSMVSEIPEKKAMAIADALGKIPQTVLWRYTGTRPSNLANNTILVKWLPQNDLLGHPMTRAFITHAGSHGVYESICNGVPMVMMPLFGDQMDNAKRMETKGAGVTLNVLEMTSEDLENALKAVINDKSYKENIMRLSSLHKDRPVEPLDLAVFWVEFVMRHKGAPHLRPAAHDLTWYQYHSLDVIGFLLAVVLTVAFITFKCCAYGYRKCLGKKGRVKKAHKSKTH
From the text: 2R,6R-hydroxynorketamine was therefore investigated for its potential to inhibit this isozyme, along with that of the major UGT isozyme, UGT1A1, using a UGT inhibition assay.

[1] = test system: α-amino-3-hydroxy-5-methyl-4-isoxazolepropionic acid receptor (AMPAR)-mediated currents; experiment: in vitro electrophysiological experiments (fEPSPs)
Experimental: The free (unbound) concentration of 2R,6R-hydroxynorketamine producing pharmacodynamics activity in the brain is estimated to be approximately 10 μM.

[2] = in vitro hepatocyte stability assay, rat; type: in vitro ADME; conditions: cryopreserved hepatocytes
Experimental: (§3) 2R,6R-hydroxynorketamine was investigated using an in vitro hepatocyte stability assay, during which 2R,6R-hydroxynorketamine was incubated with cryopreserved hepatocytes from 3 test species.

CYP3A4 = CYP3A4 (Homo sapiens, UniProt P08684); experiment: CYP inhibition assay, CYP3A4 (substrates midazolam and testosterone); type: in vitro ADME; conditions: for inhibition at 0.4 µM / inhibition at 1 µM / inhibition at 4 µM / inhibition at 10 µM / inhibition at 40 µM / inhibition at 100 µM: human
CYP3A4, sequence (P08684 whole entry): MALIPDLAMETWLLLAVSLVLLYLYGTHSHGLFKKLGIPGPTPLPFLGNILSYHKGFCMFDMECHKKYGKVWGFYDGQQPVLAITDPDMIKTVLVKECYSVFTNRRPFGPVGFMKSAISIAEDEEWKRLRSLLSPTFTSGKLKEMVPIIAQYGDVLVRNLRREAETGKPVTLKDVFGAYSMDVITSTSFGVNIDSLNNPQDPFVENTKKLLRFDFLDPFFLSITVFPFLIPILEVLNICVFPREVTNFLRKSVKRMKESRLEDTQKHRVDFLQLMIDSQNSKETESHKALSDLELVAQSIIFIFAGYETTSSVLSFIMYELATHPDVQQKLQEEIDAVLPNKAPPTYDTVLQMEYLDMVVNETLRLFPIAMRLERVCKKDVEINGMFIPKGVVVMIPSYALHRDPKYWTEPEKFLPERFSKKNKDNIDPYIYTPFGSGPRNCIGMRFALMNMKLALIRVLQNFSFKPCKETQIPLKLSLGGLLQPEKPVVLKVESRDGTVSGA
From the text: as §2

plasma binding proteins [3] = experiment: fraction unbound in 100% plasma, mouse; type: in vitro ADME
From the text: (§4) While the risk of DDIs due to displacement from plasma binding proteins (PPBs) is relatively low, it should be considered for drugs which display a high proportion PPB (fraction unbound (fu)<1%).
(§5) The fu was investigated for 2R,6R-hydroxynorketamine using a 100% plasma from 4 test species.

[4] = in vitro hepatocyte stability assay, dog; type: in vitro ADME; conditions: cryopreserved hepatocytes
Experimental: as §3

plasma binding proteins [5] = experiment: fraction unbound in 100% plasma, human; type: in vitro ADME
From the text: as §4, §5

5-HT1, Non-Selective = experiment: binding to 5-HT1 receptors, non-selective
From the text: as §1
An absence of interaction between 2R,6R-hydroxynorketamine and 5HT1 receptors is also of note. Rare postmarketing reports have described patients with weakness, hyperreflexia, and incoordination following the use of an SSRI and the 5HT1 agonist, sumatriptan. The possibility of such interactions should also be considered if other 5HT1 agonists are to be used in combination with SSRIs.

CYP1A2 = target: T2, CYP1A2 (Homo sapiens, UniProt P05177); experiment: CYP inhibition assay, CYP1A2; type: in vitro ADME
T2 sequence (P05177 1-516): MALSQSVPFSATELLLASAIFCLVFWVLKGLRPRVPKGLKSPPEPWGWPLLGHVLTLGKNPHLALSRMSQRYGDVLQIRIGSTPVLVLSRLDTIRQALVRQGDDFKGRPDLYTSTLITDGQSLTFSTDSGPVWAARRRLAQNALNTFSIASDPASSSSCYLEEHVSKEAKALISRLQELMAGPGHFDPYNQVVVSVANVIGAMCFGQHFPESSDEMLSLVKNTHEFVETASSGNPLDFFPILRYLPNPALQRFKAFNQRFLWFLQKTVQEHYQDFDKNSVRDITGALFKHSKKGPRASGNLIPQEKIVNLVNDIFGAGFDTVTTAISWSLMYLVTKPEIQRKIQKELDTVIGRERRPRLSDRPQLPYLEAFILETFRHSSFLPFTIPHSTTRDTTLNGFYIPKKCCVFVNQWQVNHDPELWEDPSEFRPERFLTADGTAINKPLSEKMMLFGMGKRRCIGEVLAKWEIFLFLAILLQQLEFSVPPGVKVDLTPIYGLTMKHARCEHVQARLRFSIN
From the text: as §2

[6] = DSC analysis of compatibility with diluents and capsule shells
UGT2B7 = UGT2B7 (Homo sapiens, UniProt P16662); experiment: UGT inhibition assay, UGT2B7; type: in vitro ADME
UGT2B7, sequence (P16662 24-529): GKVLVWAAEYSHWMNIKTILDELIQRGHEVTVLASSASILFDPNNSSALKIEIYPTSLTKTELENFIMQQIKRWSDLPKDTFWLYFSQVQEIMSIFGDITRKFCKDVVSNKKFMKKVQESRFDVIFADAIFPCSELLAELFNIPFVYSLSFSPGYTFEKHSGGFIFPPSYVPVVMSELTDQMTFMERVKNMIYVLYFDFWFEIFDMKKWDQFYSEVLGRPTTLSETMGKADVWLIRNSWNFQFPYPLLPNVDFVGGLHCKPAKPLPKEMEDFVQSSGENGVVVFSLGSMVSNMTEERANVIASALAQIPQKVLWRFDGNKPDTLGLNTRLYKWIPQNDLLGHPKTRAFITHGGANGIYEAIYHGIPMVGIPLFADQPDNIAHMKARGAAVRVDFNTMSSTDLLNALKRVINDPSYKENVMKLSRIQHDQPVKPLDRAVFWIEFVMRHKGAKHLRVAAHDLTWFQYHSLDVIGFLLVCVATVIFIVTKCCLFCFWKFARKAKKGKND

[7] = probe midazolam, Substrate = midazolam
[8] = probe testosterone, Substrate = testosterone

CYP2D6, sequence (P10635 whole entry): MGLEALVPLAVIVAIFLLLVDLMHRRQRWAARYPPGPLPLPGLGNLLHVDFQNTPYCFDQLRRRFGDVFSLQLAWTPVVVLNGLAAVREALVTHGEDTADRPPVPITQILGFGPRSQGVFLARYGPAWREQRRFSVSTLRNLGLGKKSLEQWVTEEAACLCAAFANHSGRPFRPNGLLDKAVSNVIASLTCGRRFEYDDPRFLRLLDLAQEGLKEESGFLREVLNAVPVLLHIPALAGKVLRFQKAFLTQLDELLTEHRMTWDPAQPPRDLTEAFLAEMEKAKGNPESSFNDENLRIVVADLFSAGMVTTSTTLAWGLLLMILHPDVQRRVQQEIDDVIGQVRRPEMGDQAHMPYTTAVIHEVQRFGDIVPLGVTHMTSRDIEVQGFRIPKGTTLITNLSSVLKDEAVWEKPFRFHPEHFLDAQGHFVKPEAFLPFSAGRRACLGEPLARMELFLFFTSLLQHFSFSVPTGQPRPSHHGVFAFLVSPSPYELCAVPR
MAO-A, sequence (P21397 whole entry, species assumed): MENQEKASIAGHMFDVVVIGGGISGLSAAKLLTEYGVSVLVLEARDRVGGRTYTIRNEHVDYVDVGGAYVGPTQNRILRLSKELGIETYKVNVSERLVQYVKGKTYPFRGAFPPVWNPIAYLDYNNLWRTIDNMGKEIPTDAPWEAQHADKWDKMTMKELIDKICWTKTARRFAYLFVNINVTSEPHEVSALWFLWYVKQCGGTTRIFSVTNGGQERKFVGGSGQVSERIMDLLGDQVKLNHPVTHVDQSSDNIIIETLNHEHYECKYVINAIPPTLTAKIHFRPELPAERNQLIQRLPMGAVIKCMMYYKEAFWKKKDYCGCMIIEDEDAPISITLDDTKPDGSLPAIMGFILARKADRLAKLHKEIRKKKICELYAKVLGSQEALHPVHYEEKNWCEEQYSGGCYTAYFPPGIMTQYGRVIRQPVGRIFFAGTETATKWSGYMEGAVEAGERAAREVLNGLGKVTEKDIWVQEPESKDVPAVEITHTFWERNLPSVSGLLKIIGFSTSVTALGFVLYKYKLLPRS

## N[C@@]1(c2ccccc2Cl)CCC[C@@H](O)C1=O [2R,6R-hydroxynorketamine]
MAO-A
  % Inhibition of Control Specific Binding: −5%
  % of Control Specific Binding: 97.7%
CYP2D6; 0.4 μM
  inhibition at 0.4 µM: 3.16%
CYP2D6; 1 μM
  inhibition at 1 µM: 6.65%
CYP2D6; 4 μM
  inhibition at 4 µM: 11.5%
CYP2D6; 10 μM
  inhibition at 10 µM: 9.41%
CYP2D6; 40 μM
  inhibition at 40 µM: 11.2%
CYP2D6; 100 μM
  inhibition at 100 µM: 5.73%
UGT1A1
  inhibition of UGT1A1: does not inhibit
[1]; 10 μM, in vitro electrophysiology
  field excitatory postsynaptic potentials (fEPSPs): increase
[1]; estimated
  free (unbound) concentration producing pharmacodynamics activity in the brain: approximately 10 μM
[2]
  half-life: 0.418 h
  hepatocyte CLint: 55.2 µL/min/1e6 cells
CYP3A4; [7]
  inhibition at 0.4 µM: 11.5%
  inhibition at 1 µM: 8.44%
  inhibition at 4 µM: 15.7%
  inhibition at 10 µM: 25.7%
  inhibition at 40 µM: 43.7%
  inhibition at 100 µM: 57.5%
CYP3A4; [8]
  inhibition at 0.4 µM: 1.62%
  inhibition at 1 µM: -0.509%
  inhibition at 4 µM: 7.04%
  inhibition at 10 µM: 12.4%
  inhibition at 40 µM: 35.2%
  inhibition at 100 µM: 53.4%
CYP3A4; substrate midazolam
  IC50: 69 µM
CYP3A4; substrate testosterone
  IC50: 81 µM
Plasma binding proteins [3]
  plasma protein binding (PPB), words: low PPB
[4]
  half-life: 4.9 h
  hepatocyte CLint: 4.72 µL/min/1e6 cells
Plasma binding proteins [5]
  plasma protein binding (PPB), words: low PPB
5-HT1, Non-Selective
  % Inhibition of Control Specific Binding: −9%
  % of Control Specific Binding: 105.4%
  binding to 5HT1 receptors: does not bind
CYP1A2
  IC50: ~100 µM
CYP1A2; 0.4 μM
  inhibition at 0.4 µM: 7.55%
CYP1A2; 1 μM
  inhibition at 1 µM: 8.8%
CYP1A2; 4 μM
  inhibition at 4 µM: 11.7%
CYP1A2; 10 μM
  inhibition at 10 µM: 19.3%
CYP1A2; 40 μM
  inhibition at 40 µM: 24.8%
CYP1A2; 100 μM
  inhibition at 100 µM: 48.6%
[6]
  compatibility with hydroxypropyl methylcellulose capsule shells: compatibility
[6]; DSC
  compatibility with dicalcium phosphate: compatibility
  compatibility with microcrystalline cellulose: compatibility
[6]; DSC, binary mix, 1:2 ratio of API:Excipient
  compatibility with lactose monohydrate: incompatible
UGT2B7
  inhibition of UGT2B7: does not inhibit
